PubChem BioAssay (NCI)
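Five concentrations, 48 hours, 96-well plates. The concentration for full growth arrest is given as TGI.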

Assays:
Experiment in all cases: inhibition of tumour cell growth, NCI panel, 48 h
786-0 renal = system: 786-0 renal
A549 NSCLC = system: A549 NSCLC
ACHN renal = system: ACHN renal
CAKI-1 renal = system: CAKI-1 renal
CCRF-CEM leukemia = system: CCRF-CEM leukemia
COLO 205 colon = system: COLO 205 colon
DLD-1 colon = system: DLD-1 colon
DMS 114 small cell lung = system: DMS 114 small cell lung
DMS 273 small cell lung = system: DMS 273 small cell lung
EKVX NSCLC = system: EKVX NSCLC
HCC-2998 colon = system: HCC-2998 colon
HCT-116 colon = system: HCT-116 colon
HCT-15 colon = system: HCT-15 colon
HOP-18 NSCLC = system: HOP-18 NSCLC
HOP-62 NSCLC = system: HOP-62 NSCLC
HT29 colon = system: HT29 colon
IGROV1 ovarian = system: IGROV1 ovarian
K-562 leukemia = system: K-562 leukemia
KM20L2 colon = system: KM20L2 colon
LOX IMVI melanoma = system: LOX IMVI melanoma
LXFL 529 NSCLC = system: LXFL 529 NSCLC
M14 melanoma = system: M14 melanoma
M19-MEL melanoma = system: M19-MEL melanoma
MALME-3M melanoma = system: MALME-3M melanoma
MOLT-4 leukemia = system: MOLT-4 leukemia
NCI-H226 lung = system: NCI-H226 lung
NCI-H23 lung = system: NCI-H23 lung
NCI-H460 lung = system: NCI-H460 lung
NCI-H522 lung = system: NCI-H522 lung
OVCAR-3 ovarian = system: OVCAR-3 ovarian
OVCAR-4 ovarian = system: OVCAR-4 ovarian
OVCAR-5 ovarian = system: OVCAR-5 ovarian
OVCAR-8 ovarian = system: OVCAR-8 ovarian
RPMI-8226 leukemia = system: RPMI-8226 leukemia
RXF 393 renal = system: RXF 393 renal
SF-268 CNS = system: SF-268 CNS
SF-295 CNS = system: SF-295 CNS
SF-539 CNS = system: SF-539 CNS
SK-MEL-2 melanoma = system: SK-MEL-2 melanoma
SK-MEL-28 melanoma = system: SK-MEL-28 melanoma
SK-MEL-5 melanoma = system: SK-MEL-5 melanoma
SK-OV-3 ovarian = system: SK-OV-3 ovarian
SN12C renal = system: SN12C renal
SNB-19 CNS = system: SNB-19 CNS
SNB-75 CNS = system: SNB-75 CNS
SNB-78 CNS = system: SNB-78 CNS
SW-620 colon = system: SW-620 colon
TK-10 renal = system: TK-10 renal
U251 CNS = system: U251 CNS
UACC-257 melanoma = system: UACC-257 melanoma
UACC-62 melanoma = system: UACC-62 melanoma
UO-31 renal = system: UO-31 renal
XF 498 CNS = system: XF 498 CNS
A498 renal = system: A498 renal
HL-60(TB) leukemia = system: HL-60(TB) leukemia
HOP-92 NSCLC = system: HOP-92 NSCLC
RXF-631 renal = system: RXF-631 renal

Measured: TGI

O=C(O)[C@H](NS(=O)(=O)c1ccc(F)cc1)c1ccccc1
not listed: A498 renal | HL-60(TB) leukemia | HOP-92 NSCLC | RXF-631 renal
> 100 µM: all other assays above

c1ccc2c3c([nH]c2c1)[C@H]1C2CCCCN2CN1CC3 (stereo partly drawn)
not listed: LOX IMVI melanoma | NCI-H226 lung
> 100 µM: all other assays above
